Experimental findings from ChEMBL document CHEMBL5029171, “Dynamics of Post-Translational Modification Inspires Drug Design in the Kinase Family” (J Med Chem, 2021) are described below.

The inhibition is the change of the read-out against control, counted positive when it falls. A word on the ΔTm: it is the change in melting temperature against a reference sample.

The target of test [1] is Proto-oncogene tyrosine-protein kinase Src (Homo sapiens) (UniProt P12931). Nature of the test: Inhibition of human recombinant flag-tagged c-Src protein (86 to 536 residues) catalytic activity expressed in Escherichia coli BL21 (DE3) cells at 50 uM using biotinylated TK-substrate peptide as substrate preincubated for 1 hr followed by substrate addition and measured after 1 hr by HTRF assay relative to control. The following applies: time 2.0 hrs.

For test [2] the target is unchanged. Put plainly: Binding affinity to human recombinant flag-tag c-Src protein (86 to 536 residues) expressed in Escherichia coli BL21 (DE3) cells assessed as change in melting temperature at 1:5 ratio incubated for 25 mins by protein thermal shift assay.
The target is the same in test [3]. Nature of the test: Binding affinity to human recombinant flag-tag c-Src protein (86 to 536 residues) expressed in Escherichia coli BL21 (DE3) cells assessed as change in melting temperature at 1:10 ratio incubated for 25 mins by protein thermal shift assay.
Test [4] shares this target. Nature of the test: Binding affinity to human recombinant flag-tag c-Src protein (86 to 536 residues) expressed in Escherichia coli BL21 (DE3) cells assessed as change in melting temperature at 1:20 ratio incubated for 25 mins by protein thermal shift assay.

Proto-oncogene tyrosine-protein kinase Src (Homo sapiens), sequence (P12931 2-536 limits assumed): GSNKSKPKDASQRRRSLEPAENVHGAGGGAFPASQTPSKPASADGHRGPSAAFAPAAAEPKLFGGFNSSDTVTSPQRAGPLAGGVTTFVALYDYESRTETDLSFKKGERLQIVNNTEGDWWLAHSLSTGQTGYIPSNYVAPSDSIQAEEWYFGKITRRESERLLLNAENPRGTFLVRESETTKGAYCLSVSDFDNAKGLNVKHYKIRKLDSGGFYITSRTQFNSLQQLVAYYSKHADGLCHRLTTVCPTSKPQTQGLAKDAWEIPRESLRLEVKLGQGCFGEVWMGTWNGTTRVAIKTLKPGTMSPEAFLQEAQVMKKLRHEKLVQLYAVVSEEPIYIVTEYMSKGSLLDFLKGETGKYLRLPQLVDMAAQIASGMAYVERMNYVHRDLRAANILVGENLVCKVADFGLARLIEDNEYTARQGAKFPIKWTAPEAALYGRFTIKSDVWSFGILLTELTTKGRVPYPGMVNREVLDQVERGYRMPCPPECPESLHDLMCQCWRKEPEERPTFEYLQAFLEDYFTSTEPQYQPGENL

For the compound `O=C(NC1CCCC1)C(c1ccc(Cl)cc1)N(Cc1cccs1)C(=O)CCl` (stereo unspecified), the inhibition in test [1] was > 60%.
Still for that read-out and setting: the same measure for `COc1ccc(C(C(=O)NC2CCCC2)N(CCC2=CCCCC2)C(=O)CCl)cc1` (stereo unspecified): > 60%.
Take `O=C(NC1CCCC1)C(c1ccc(F)cc1)N(C(=O)CCl)C1CC1` (stereo unspecified): the ΔTm was determined as 1.5 °C in test [2], 2.56 °C in test [3] and 3.3 °C in test [4]. Also, in test [1], the inhibition is > 60%.
